How the values were obtained:
[1] = Solubility of sensory oil in 75/25 EtOH/Water blend; format: physicochemical
Description: (§1) A sensory oil can be used in the antibacterial composition to assist in leaving the user with a non-tacky feeling to the skin after application of the composition. The antibacterial composition comprises a sensory oil in an amount of 0.01 to 10% by weight, preferably 0.5 to 5% by weight including all values and ranges subsumed therein. The sensory oil can comprise a soluble sensory oil. Sensory oils desirable for use in the antibacterial composition disclosed herein must meet the following criteria: the sensory oil must be liquid, the sensory oil must be soluble in at least a 75/25 or higher ratio of EtOH/Water which is to be reflective of solubility in the final composition to give a clear final antibacterial composition, and the sensory oil must have no solvency for water.
(§2) The examples are not meant to limit the materials that can be used but merely to illustrate oil type and level selected based on three criteria. […] Finally, the preferred oil must itself not have solvency for water such that during application and on drying as the ethanol and water evaporate, the water is also allowed to quickly evaporate leaving behind only the oil and any skin benefit actives/moisturizers if present.

[2] = Water solubility in sensory oil (solvency of the oil for water); format: physicochemical; details: yes/no
Description: as §1, §2

melanin content of cells = assay: Melanin content assay; format: cell-based; details: for % Inhibition in Melanin Content: 72 hours incubation
Method: In this Example, cells were grown for 24 hours and treated with bioactives and incubated for 72 hours. Post treatment, the cells were lysed and absorbance measured at 405 nm. The lysate was transferred to a fresh 384-well clear flat bottom plate and an […] was measured at 405 nm using a FlexStation 3 reader. (% reduction in melanin content was measured by taking the mean absorbance value of the control−the mean absorbance value of the treated cells/the mean absorbance value of the control)*100

cells = assay: Wound healing (scratch closure) assay; format: cell-based; details: 24 hours after scratch
Method: In this example, various combinations of benefit agents were tested for resilience wound healing and barrier repair. For wound healing assessments, cells were grown to 80% confluency and treated with bioactives for 24 to 36 hours. Post treatment, a scratch was created on the cell and closure of the wound was monitored after 24 hours of incubation. Closure of the scratch area was calculated as a % closure of the wound. Microscopic images were captured at a magnification of 4× and the open wound area measurements were analyzed using the software CellSens. Wound closure in percentage=(mean of the readings of the open wound area at (t=24)−mean of the readings of the open wound area at (t=0)/mean of the readings at (t=0))*100.

Row | Compound | Solubility in 75/25 EtOH/Water [1] | Water solubility in sensory oil [2] | also measured
1 | CCCCC(CC)COC(=O)CCCCC(=O)OCC(CC)CCCC (centres unmarked) [Diethylhexyl adipate] | <10% | No | 
2 | CCCCCCc1ccc(O)cc1O [4-Hexyl resorcinol, reference compound] |  |  | inhibition at 10 µM (melanin content of cells; 10 micromolar, read-out: % inhibition in melanin content (benchmark)): ~33%
3 | CCCCC(CC)COC(=O)CC(O)C(=O)OCC(CC)CCCC (centres unmarked) [Diethyl hexyl malate] | >30% | No | 
4 | NC(=O)c1cccnc1 [Vitamin B3, niacinamide] |  |  | % Closure in Scratch Area (cells; 0.2%): 30%; % Inhibition in Melanin Content (melanin content of cells; 0.2%): 7.47%
5 | tocopherol [Vitamin E] |  |  | % Closure in Scratch Area (cells; 0.001%): 32%; % Closure in Scratch Area (cells; 0.05%): 48%; % Inhibition in Melanin Content (melanin content of cells; 0.001%): 3.56%; % Inhibition in Melanin Content (melanin content of cells; 0.05%): 15.62%
6 | CCCCC(CC)COC(=O)CCCCCCCCC(=O)OCC(CC)CCCC (centres unmarked) [Diethyl hexyl sebacate] | <10% | No | 
7 | CC(C)OC(=O)CCCCC(=O)OC(C)C [Disopropyl adipate] | >30% | No | 
8 | Sodium Hyaluronate |  |  | % Closure in Scratch Area (cells; 0.001%): 51%; % Inhibition in Melanin Content (melanin content of cells; 0.001%): 9.09%
9 | Dicapryl maleate | <10% | No | 
10 | PPG-2-Isoceteth-2 | >30% | Yes | 
11 | Glyceryl Monoleate | >30% | yes | 
12 | Isocetyl alcohol | <10% | No | 
13 | PPG-2 Isoceteth-20 Acetate | >30% | no | 
14 | CCCCCCCCCCCCOC(=O)C(C)O (centres unmarked) [Lauryl lactate] | >30% | No | 

Reference: patent US20230301883A1, “MOISTURIZING ANTIBACTERIAL COMPOSITION” (priority 2020, published 2023)
